Experimental data published in US5206234A, “Benzolactam analogs as antagonists of CCK” (priority 1991, dated 1993).
pIC50: −log10 of the molar value.

How the values were obtained:
anxiety (mice) = experiment: Black/white exploration test (anxiolytic activity); assay type: in vivo, mouse (male DBA2)
Text: The black/white exploration test [Crawley et al. Pharmacology, Biochemistry and Behav. 13, 167 (1980)] is a simple animal model of anxiety. Rodents placed in a two compartment box which consists of a brightly lit, white painted side and a dimly lit, black painted side, display a marked preference for the black side of the apparatus. This behavior is caused by the aversive properties of the brightly lit, white painted section. Classical anxiolytic drugs [such as diazepam, see Crawley, supra] and novel anxiolytic drugs [such as 5HT3 antagonists, see Jones et al. Br. J. Pharm.
A. Naive male DBA2 mice (25-30) were housed on a reversed light/dark cycle and tested during the dark phase of the cycle under dim red light. The apparatus consisted of an open topped box (40 cm long×27 cm wide×27 cm high) divided into a small area (2/5) and a large area (3/5) by a partition that extended 20 cm above the walls. There was a 7.5×7.5 cm opening in the partition at floor level. The small compartment was painted black and the large compartment white. The floor of each compartment was marked into 9 cm squares. The white compartment was illuminated by a 100 W tungsten bulb 17 cm above the box and the black compartment by a similarly placed 60 W red bulb.
Animals that had been injected with drug or vehicle were placed individually into the centre of the white area and their behavior observed during a 5 minute period by remote video recording. Four behavioral parameters were recorded every minute: the number of exploratory rears in the white and black sections, the number of line crossings in the black and white sections, the number of transitions between the two sections and the time spent in the black and white sections. Animals were tested in treatment groups of 8-10 and vehicle controls were run on each test day. Data were analysed by ANOVA and Dunnetts test.

[1] = molecular target: T1, CCK receptor (Brain, cerebral cortex) (Cavia porcellus, UniProt H0VZC5); experiment: CCK Receptor Binding (Brain), inhibition of 125I-CCK-33 binding; parameters: species or system guinea pig (Male Hartley); settings: head prints ^25 I-CCK; guinea pig cerebral cortex
T1 construct: Cerebral cortex was dissected and used as a receptor source; from tissue; host or cells: cerebral cortex membranes of male Hartley guinea pigs
T1 sequence (H0VZC5 1-426): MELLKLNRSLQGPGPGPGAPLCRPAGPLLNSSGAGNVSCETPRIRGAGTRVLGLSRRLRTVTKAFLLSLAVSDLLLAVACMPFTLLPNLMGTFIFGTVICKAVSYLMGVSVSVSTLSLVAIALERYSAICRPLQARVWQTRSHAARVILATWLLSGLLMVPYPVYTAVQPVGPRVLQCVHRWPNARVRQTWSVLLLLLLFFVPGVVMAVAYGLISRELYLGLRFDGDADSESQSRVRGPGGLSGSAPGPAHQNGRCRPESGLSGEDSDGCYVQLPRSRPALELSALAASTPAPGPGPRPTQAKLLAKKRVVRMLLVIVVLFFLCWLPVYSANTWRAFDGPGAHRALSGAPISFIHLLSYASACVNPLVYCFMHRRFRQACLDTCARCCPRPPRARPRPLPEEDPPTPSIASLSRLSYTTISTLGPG
Description: CCK-33 was radiolabeled and the binding was performed according to the description for the pancreas method with modifications according to Saito et al., J. Neurochem. 37:483-490, 1981.
Male Hartley guinea pigs (300-500 g) were sacrificed by decapitation and the brains were removed and placed in ice-cold 50 mM Tris HCl plus 7.58 g/l Trizma-7.4 (pH 7.4 at 25° C.). Cerebral cortex was dissected and used as a receptor source. Each gram of fresh guinea pig brain tissue was homogenized in 10 ml of Tris/Trizma buffer with a Brinkman polytron PT-10. The homogenates were centrifuged at 42,000 g for 15 minutes. Pellets were resuspended in Tris Buffer, centrifuged as above and resuspended in 200 volumes of binding assay buffer (10 mM N-2-hydroxyethyl-piperazine-N'-2-ethane sulfonic acid (HEPES), 5 mM MgCl2, 0.25 mg/ml bacitracin, 1 mM ethylene glycol-bis-(β-aminoethylether-N,N'-tetraacetic acid) (EGTA), and 0.4% bovine serum albumin (BSA)). […] All assays were run in duplicate or triplicate. The reaction mixtures were incubated at 25° C. for 2 hours and centrifuged in a Beckman Microfuge (4 minutes) immediately after adding 1 ml of ice-cold incubation buffer. The supernatant was aspirated and discarded, pellets were counted with a Beckman gamma 5000.

CCK receptor (Pancreas) = molecular target: T2, CCK receptor (Pancreas) (Rattus norvegicus, UniProt P30551); experiment: CCK Receptor Binding (Pancreas), inhibition of 125I-CCK-33 binding; parameters: species or system rat (Male Sprague-Dawley); settings: for pIC50: 125I-CCK-33, rat pancreas membranes; for Effect on the 125I-CCK receptor binding assay: added as protease inhibitors
T2 construct: The whole pancreas was dissected free of fat tissue and was homogenized; from tissue; host or cells: pancreas membranes of male Sprague-Dawley rats
T2 sequence (P30551 1-444): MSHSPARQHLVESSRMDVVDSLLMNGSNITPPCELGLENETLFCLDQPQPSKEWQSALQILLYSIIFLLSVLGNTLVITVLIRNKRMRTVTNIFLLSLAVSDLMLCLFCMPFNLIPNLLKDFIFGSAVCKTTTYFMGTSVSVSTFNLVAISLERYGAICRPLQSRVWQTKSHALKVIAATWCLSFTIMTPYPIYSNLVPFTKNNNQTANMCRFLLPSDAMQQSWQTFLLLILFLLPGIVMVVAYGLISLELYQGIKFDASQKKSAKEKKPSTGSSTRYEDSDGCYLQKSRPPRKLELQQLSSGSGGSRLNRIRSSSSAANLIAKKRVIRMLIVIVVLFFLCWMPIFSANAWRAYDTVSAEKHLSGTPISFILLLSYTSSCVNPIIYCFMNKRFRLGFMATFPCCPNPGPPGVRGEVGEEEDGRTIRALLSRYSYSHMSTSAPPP
Description: CCK-33 was radiolabeled with ^125 I-Bolton Hunter reagent (2000 Ci/mmole) as described by Sankara et al. (J. Biol. Chem. 254: 9349-9351, 1979). Receptor binding was performed according to Innis and Snyder (Proc. Natl. Acad. Sci. 77, 6917-6921, 1980) with the minor modification of adding the additional protease inhibitors, phenylmethane sulfonyl fluoride and o-phenanthroline. The latter two compounds have no effect on the ^125 I-CCK receptor binding assay.
Male Sprague-Dawley rats (200-350 g) were sacrificed by decapitation. The whole pancreas was dissected free of fat tissue and was homogenized in 20 volumes of ice-cold 50 mM Tris HCl (pH 7.7 at 25° C.) with a Brinkmann Polytron PT 10. The homogenates were centrifuged at 48,000 g for 10 min. Pellets were resuspended in Tris Buffer, centrifuged as above and resuspended in 200 volumes of binding assay buffer (50 mM Tris HCl, pH 7.7 at 25° C., 5 mM dithiothrietol, 0.1 mM bacitracin, 1.2 mM phenylmethane sulfonyl fluoride and 0.5 mM o-phenanthroline). […] All assays were run in duplicate or triplicate. The reaction mixtures were incubated at 37° C. for 30 minutes and centrifuged in a Beckman Microfuge (4 minutes) immediately after adding 1 ml of ice-cold incubation buffer. The supernatant was aspirated and discarded, pellets were counted with a Beckman gamma 5000. For Scatchard analysis (Ann. N.Y. Acad. Sci. 51: 660, 1949), ^125 I-CCK-33 was progressively diluted with increasing concentrations of CCK-33.
A Ki value (dissociation constant of inhibitor) of the compounds of Formula I was estimated.

[2] = molecular target: T3, Gastrin receptor (Gastric Glands) (Cavia porcellus, UniProt H0VZC5); experiment: Gastrin Receptor Binding in Guinea Pig Gastric Glands; parameters: species or system guinea pig (male Hartley); settings: head prints ^25 I-Gastrin, read-out: Receptor binding IC50, 125I-Gastrin Gastric Glands
T3 construct: from tissue; host or cells: gastric mucosal glands of male Hartley guinea pigs
T3 sequence (H0VZC5 1-426): T1 sequence (H0VZC5 1-426)
Description: Guinea pig gastric mucosal glands were prepared by the procedure of Berglingh and Obrink Acta Physiol. Scand. 96: 150 (1976) with a slight modification according to Praissman et al. C. J. Receptor Res. 3: (1983). Gastric mucosa from guinea pigs (300-500 g body weight, male Hartley) were washed thoroughly and minced with fine scissors in standard buffer consisting of the following: 130 mM NaCl, 12 mM NaHCO3, 3 mM NaH2 PO4, 3 mM Na2 HPO4, 3 mM K2 HPO4, 2 mM MgSO4, 1 mM CaCl2, 5 mM glucose and 4 mM L-glutamine, 25 mM HEPES at pH 7.4. The minced tissues were washed and then incubated in a 37° C. shaker bath for 40 minutes with the buffer containing 0.1% collagenase and 0.1% BSA and bubbled with 95% O2 and 5% CO2. The tissues were passed twice through a 5 ml glass syringe to liberate the gastric glands, and then filtered through 200 mesh nylon. The filtered glands were centrifuged at 270 g for 5 minutes and washed twice by resuspension and centrifugation.
The washed guinea pig gastric glands prepared as above were resuspended in 25 ml of standard buffer containing 0.25 mg/ml of bacitracin. For binding studies, to 220 μl of gastric glands in triplicate tubes, 10 μl of buffer (for total binding) or gastrin (1 μM final concentration, for nonspecific binding) or test compound and 10 μl of ^125 I-gastrin (NEN, 2200 Ci/mmole, 25 pM final) or ^3 H-pentagastrin (NEN 22 Ci/mmole, 1 nM final) were added. The tubes were aerated with 95% O2 and 5% CO2 and capped. The reaction mixtures after incubation at 25° C. for 30 minutes were filtered under reduced pressure on glass G/F B filters (Whatman) and immediately washed further with 4×4 ml of standard buffer containing 0.1% BSA. The radioactivity on the filters was measured using a Beckman gamma 5500 for ^125 I-gastrin or liquid scintillation counting for ^3 H-pentagastrin.

SMILES	pIC50 [1]	pIC50 (CCK receptor (Pancreas))	also measured
Cc1cccc(NC(=O)N[C@@H]2N=C(c3ccccc3)c3ccccc3N(C)C2=O)c1 [Compound B, (R)-N-(2,3-dihydro-1-methyl-2-oxo-5-phenyl-1H-1,4-benzodiazepin-3-yl)-N'-(3-methylphenyl)urea]			Difference in time spent in the black and white side (anxiety (mice); 0.005 ug/kg): decreased the difference in time spent in the black and white side; Preference for rearing in the black side (anxiety (mice); 0.05 ug/kg): abolished the preference for rearing in the black side; Active dose range (anxiety (mice); black/white exploration test, mice): 0.005 to 0.05 µg/kg
CC(C)(C)OC(=O)CN1C(=O)C(NC(=O)Nc2ccc(Cl)cc2)CCc2ccccc21 (centres unmarked) [Example 1, 1,1-Dimethylethyl 3-{[[(4-chlorophenyl)amino]carbonyl]amino}-2,3,4,5-tetrahydro-2-oxo-1H-1-benzazepine-1-acetic acid ester]	6.74	6.46	pIC50 [2]: 6.92
COc1cccc(NC(=O)NC2CCc3ccccc3N(CC(=O)OC(C)(C)C)C2=O)c1 (centres unmarked) [Example 2]		4.85	
COc1cccc(NC(=O)NC2CCc3ccccc3N(CC(=O)O)C2=O)c1 (centres unmarked) [Example 3]	5.07	5.68	pIC50 [2]: 5.51
Cc1cccc(NC(=O)NC2CCc3ccccc3N(CC(=O)OC(C)(C)C)C2=O)c1 (centres unmarked) [Example 4]		7.92	
Cc1cccc(NC(=O)NC2CCc3ccccc3N(CC(=O)O)C2=O)c1 (centres unmarked) [Example 5, 2,3,4,5-Tetrahydro-3-{[[(3-methylphenyl)aminol]carbonyl]amino}-2-oxo-1H-1-benzazepine-1-acetic acid]		6.03	
Cc1cccc(NC(=O)NC2CCc3ccccc3N(CC(=O)N3CCCC3)C2=O)c1 (centres unmarked) [Example 6, 1-{[2,3,4,5-Tetrahydro-3-{[[(3-methylphenyl)amino]carbonyl]amino}-2-oxo-1H-1-benzazepin-1-yl]acetyl}pyrrolidine]		7.10	
Cc1cccc(NC(=O)NC2CCc3ccccc3N(CC(=O)N3CCN(C)CC3)C2=O)c1 (centres unmarked) [Example 7, 1-Methyl-4-{[2,3,4,5-tetrahydro-3-{[[(3-methylphenyl)amino]carbonyl]amino}-2-oxo-1H-1-benzazepin-1-yl]aceyl}piperazine]	5.30	6.01	pIC50 [2]: 6.21
CC(C)(C)OC(=O)CN1C(=O)C(NC(=O)Nc2cccc3ccccc23)CCc2ccccc21 (centres unmarked) [Example 8]	6.83	6.02	pIC50 [2]: 6.32
O=C(O)CN1C(=O)C(NC(=O)Nc2cccc3ccccc23)CCc2ccccc21 (centres unmarked) [Example 9, 2,3,4,5-Tetrahydro-3-{[[(1-naphthalenyl)amino]carbonyl]amino}-2-oxo-1H-1-benzazepine-1-acetic acid]		4.70	
CN1CCN(C(=O)CN2C(=O)C(NC(=O)Nc3cccc4ccccc34)CCc3ccccc32)CC1 (centres unmarked) [Example 10, 1-Methyl-4-{[2,3,4,5-tetra-hydro-3-{[[(1-naphthalenyl)amino]carbonyl]amino}-2-oxo-1H-1-benzazepin-1-yl]acetyl}piperazine]		4.49	
Cc1ccc(NC(=O)NC2CCc3ccccc3N(CC(=O)N3CCCC3)C2=O)cc1 (centres unmarked) [Example 13, 1-{[2,3,4,5-Tetrahydro-3-{[[(4-methylphenyl)amino]carbonyl]amino}-2-oxo-1H-1-benzazepin-1-yl]aceyl}pyrrolidine]		5.80	
Cc1ccc(NC(=O)NC2CCc3ccccc3N(CC(=O)N3CCN(C)CC3)C2=O)cc1 (centres unmarked) [Example 14, 1-Methyl-4-{[2,3,4,5-tetra-hydro-3-{[[(4-methylphenyl)amino}carbonyl]amino}-2-oxo-1H-1-benzazepin-1-yl]acetyl}piperazine]	4.11	4.89	
c1cnc2c(c1)ccc1cccnc12 [o-phenanthroline, reference compound]			Effect on the 125I-CCK receptor binding assay (CCK receptor (Pancreas)): no effect
O=S(=O)(F)Cc1ccccc1 [phenylmethane sulfonyl fluoride, reference compound]			Effect on the 125I-CCK receptor binding assay (CCK receptor (Pancreas)): no effect
